Results taken from US20210361680A1, “INOSITOL-BASED IMMUNOTHERAPIES” (NormOxys, Inc., priority 2018, published 2021).
Entries after “also recorded” stand apart in the source; their conditions may differ.

Legend:
NK cells [1] = assay: Immunocytochemical labelling of NK cell infiltrate in B16F10 Luc tumors; format: in vivo, mouse; conditions: B16F10 Luc tumors extracted on day 23; non-treated: NK cells stuck in the vessels
Method: (§1) Murine B16F10 cells were implanted in C57BL6 or on Rj:NMRI-nu nude mice leg subcutaneously as we described previously by injecting a spheroid plug of 10^5 cells in 100 μl Matrigel (BD Biosciences).
(§2) ITPP was injected intraperitoneally (1.5 g/kg: in saline) twice a week over 3 weeks. It was started on day7 and repeated on day 8 post tumor inoculation (day 0). The following serial treatments were applied on days 15 and 16, 21 and 22. Tumors were extracted and weighted at the indicated times.
Tumor tissues were embedded in tissue freezing medium (Tissue-Tek; Sakura) and snap frozen in liquid nitrogen. Tumor cryosections were fixed and stained with mouse anti-CD31 (rat monoclonal IgG2a; eBiosciences), anti-CD49b (Rat IgM; BD Pharmingen) or anti-Firefly Luciferase (Rabbit IgG; Abcam) before tetramethyl rhodamine isothiocyanate or fluorescein isothiocyanate secondary antibodies were added. Nuclei were stained with bisbenzimide H 33258 (Sigma-Aldrich).

immune cells (CD45+) = assay: Flow cytometry of CD45+ immune cells in B16F10Luc tumors; format: in vivo, mouse; conditions: ITPP-treated versus control mice
Method: as §1, §2
(§3) Tumor samples were immediately transferred in to PBS on ice. Biopsies were cut into small pieces and filtered through cell strainer after being dissociated by collagenase/dispase (Gibco). The samples were depleted of erythrocytes by red blood lysis buffer (eBiosciences).
(§4) Single cell suspensions were stained with mAbs for 1 h at 4° C. Acquisition was performed by one to four color flow cytometry using FACS LSR (Becton Dickinson). Dead cells were excluded on scatter profile. Data were acquired using CellQuest software (Becton Dickinson) on at least 100,000 events. Data were expressed as dot plot or histogram when comparison of fluorescence intensity is needed.
(§5) The following directly conjugated rat anti-mouse mAbs were used for the FACS staining: CD45-PerCP, CD11b-APC, CCR4-PE, CCR5-PE, CCR7-PE, CCR1O-PE and CXCR4-PE were from BD Biosciences. CD49b-APC was from Biolegend. […]

CTLA-4 = assay: Flow cytometry of CTLA-4 expression among CD45+ cells; format: in vivo, mouse
Method: as §2, §3, §4
The following directly conjugated rat anti-mouse mAbs were used for the FACS staining: CD45-PerCP, CD11b-APC, CCR4-PE, CCR5-PE, CCR7-PE, CCR1O-PE and CXCR4-PE were from BD Biosciences. CD49b-APC was from Biolegend. CD226-PE, CD4-FITC, CD25-APC, CD8a-FITC, PD-1-PE, CTLA-4-PE, PDL1-PE-Cy7, PDL2-FITC and CD47-APC were from eBiosciences. CD11c-FITC and GR1-FITC were from Milteny. CD206 was from Santa Cruz. […]

CD45+CD4+CCR4+ Th2 cells = assay: Flow cytometry of Th2 cells in B16F10 Luc melanoma; format: in vivo, mouse
Method: as §1, §2, §3, §4, §5

CX3CR1 = assay: Flow cytometry of CX3CR1 expression in the tumor site; format: in vivo, mouse; conditions: endothelial enriched cell population
Method: as §1, §2, §3
(§6) In specified experiments, tumors were depleted from CD45+ and/or CD31+ cells by magnetic separation (Easy Sep magnet, StemCell Technologies Inc).
as §4

CD31+ endothelial cells = assay: Flow cytometry of CD31+ endothelial cells in B16F10Luc melanoma; format: in vivo, mouse; conditions: treated versus non-treated tumors
Method: as §1, §2, §3, §4, §5

[2] = test system: CD45+CD4+CD25+FoxP3+ Treg cells; assay: Flow cytometry of Treg cells in B16F10Luc tumors; format: in vivo, mouse
Method: as §1, §2, §3, §4, §5

PD-1 [3] = assay: Flow cytometry of PD-1 expressing CD45+ cells in B16F10 melanoma; format: in vivo, mouse
Method: as §1, §2, §3, §4, §5

B16F10 melanoma cells [4] = assay: Tumor growth of B16F10 melanoma in C57BL6 mice under ITPP treatment; format: in vivo, mouse; conditions: day 23
Method: (§7) Murine B16F10 cells were implanted in C57BL6 or on Rj:NMRI-nu nude mice leg subcutaneously by injecting a plug of 10^5 cells in 100 μl Matrigel (BD Biosciences).
as §1, §2

CD47 = assay: Flow cytometry of CD47 expression in B16F10 tumors; format: in vivo, mouse; conditions: tumor B16F10 melanoma cells
Method: as §1, §2, §3, §4, §5

[5] = test system: M2 (CD45+CD11c+CD206+) macrophages; assay: Flow cytometry of M2 macrophages in 4T1 mammary carcinoma; format: in vivo, mouse
Method: (§8) 4T1murine mammary carcinoma (10^4 cells as spheroid plug in Matrigel) cells were injected in the mammary fat pad of BALBc/by mice.
as §2, §3, §4, §5

PD-L2 = assay: Flow cytometry of PD-L2 expression in tumor cell populations; format: in vivo, mouse; conditions: for reduction of the expression of PD-L2: compared with PD-L1
Method: as §1, §2, §3, §6, §4
(§9) The following directly conjugated rat anti-mouse mAbs were used for the FACS staining: CD45-PerCP, CD11b-APC, CCR4-PE, CCR5-PE, CCR7-PE, CCR1O-PE and CXCR4-PE were from BD Biosciences. CD49b-APC was from Biolegend. CD226-PE, CD4-FITC, CD25-APC, CD8a-FITC, PD-1-PE, CTLA-4-PE, PDL1-PE-Cy7, PDL2-FITC and CD47-APC were from eBiosciences. CD11c-FITC and GR1-FITC were from Milteny. CD206 was from Santa Cruz. We used anti-mouse Foxp3 staining set PE (eBioscience) for Foxp3 staining.

CXCR4 = assay: Flow cytometry of CXCR4 expression in the tumor site; format: in vivo, mouse
Method: as §1, §2, §3, §6, §4, §9

CCR5 = assay: Flow cytometry of CCR5 expression in the tumor site; format: in vivo, mouse
Method: as §1, §2, §3, §6
(§10) Single cell suspensions were stained with mAbs for 1 h at 4° C. Acquisition was performed by one to four color flow cytometry using FACS LSR (Becton Dickinson). Dead cells were excluded on scatter profile. Data were acquired using CellQuest software (Becton Dickinson) on at least 100,000 events. Data were expressed as dot plot or histogram when comparison of fluorescence intensity is needed. […]

PD-L1 = assay: Flow cytometry of PD-L1 expression in tumor cell populations; format: in vivo, mouse
Method: as §1, §2, §3, §6, §4, §9

NK cells [6] = assay: Flow cytometry of NK cells in B16F10Luc tumors, C57BL6 mice; format: in vivo, mouse
Method: as §1, §2, §3, §4, §9

activated NK cells = assay: Flow cytometry of activated NK cells in 4T1 mammary carcinoma; format: in vivo, mouse; conditions: 4T1 cells bearing mice
Method: as §8, §2, §3, §4, §5

cells = conditions: cited from earlier work
Treg cells = assay: Flow cytometry of Treg cells in 4T1 mammary carcinoma; format: in vivo, mouse; conditions: 4T1 mammary carcinoma bearing BalbC mice
Method: as §8, §2, §3, §4, §5

CD45+CD11b+Gr1+ MDSCs = assay: Flow cytometry of MDSCs in B16F10 Luc melanoma; format: in vivo, mouse
Method: as §1, §2, §3, §4, §5

NK cells [7] = assay: Flow cytometry of NK cells in B16F10Luc tumors, NRj:NMRI nude mice; format: in vivo, mouse; conditions: B16F10-Luc tumors in nude mice
Method: as §1, §2, §3, §4, §5

[8] = test system: M2 (CD45+CD11c+CD206+) macrophages; assay: Flow cytometry of M2 macrophages in B16F10Luc melanoma; format: in vivo, mouse; conditions: melanoma tumor site
Method: as §1, §2, §3, §4, §5

CCR10 = assay: Flow cytometry of CCR10 expression in the tumor site; format: in vivo, mouse
Method: as §1, §2, §3, §6, §4, §9

CCR7 = assay: Flow cytometry of CCR7 expression in the tumor site; format: in vivo, mouse; conditions: tumor cells
Method: as §1, §2, §3, §6, §10

PD-1 [9] = assay: Flow cytometry of PD-1 expressing CD45+ cells in 4T1 mammary carcinoma; format: in vivo, mouse
Method: as §8, §2, §3, §4, §5

B16F10 melanoma cells [10] = assay: Tumor growth of B16F10 melanoma in Rj:NMRI-nu nude mice under ITPP treatment; format: in vivo, mouse; conditions: ITPP 1.5 g/kg intraperitoneally, day 23, versus controls
Method: as §7, §1, §2

4T1 mammary carcinoma = assay: Tumor growth of 4T1 mammary carcinoma in BALB/c-by mice under ITPP treatment; format: in vivo, mouse
Method: as §8, §2

[11] = in vivo; cited from earlier work
[12] = test system: M1 (CD45+CD11c+CD206−) macrophages; assay: Flow cytometry of M1 macrophages in B16F10 Luc melanoma; format: in vivo, mouse
Method: as §1, §2, §3, §4, §5

[13] = CD31+ endothelial cells of the tumor

O=P1(O)OC2C3OP(=O)(O)OP(=O)(O)OC3C3OP(=O)(O)OP(=O)(O)OC3C2OP(=O)(O)O1 (centres unmarked) [ITPP, myo-inositol tris pyrophosphate]
NK cell (CD49b+) infiltrate in the tumor (NK cells [1]): infiltrated the tumor mass
proportion of immune cells (CD45+) in the tumor (immune cells (CD45+)): higher
CTLA-4 expression (CTLA-4): No significant change
proportion of Th2 cells (CD45+CD4+CCR4+) in the tumor site (CD45+CD4+CCR4+ Th2 cells): decrease; also recorded: reduced
expression of the fractalkine receptor CX3CR1 (CX3CR1): induced expression
proportion of CD31+ endothelial cells (CD31+ endothelial cells): higher; also recorded: increased
proportions of CD45+CD4+CD25+FoxP3+ Treg cells [2]: very significantly decreased; also recorded: reduced
CD45+PD-1+ cells among whole tumor populations (PD-1 [3]): increase; also recorded: enriched
tumor size (B16F10 melanoma cells [4]; B16F10 melanoma in normal C57BL6 mice, ITPP 1.5 g/kg intraperitoneally, versus controls): reduction of the tumor size; also recorded: half size of the controls
tumor growth (B16F10 melanoma cells [4]; melanoma cells, treatments stopped on day 21): 50%
intensity of CD47 expression (CD47): reduced
proportion of M2 (CD45+CD11c+CD206+) macrophages [5]: reduced; also recorded: decreased
expression of PD-L2 (PD-L2; [13]): reduced and less
expression of PD-L2 (PD-L2; immune CD45+ cell population): strongly reduced
reduction of the expression of PD-L2 (PD-L2; separated CD45− cells): to a lesser extent
reduction of the expression of PD-L2 (PD-L2; whole tumor cell populations): to a lesser extent
CXCR4 expression (CXCR4; CD45+ cells): not affected
CXCR4 expression (CXCR4; endothelial enriched cell population): not affected
cells expressing CXCR4 (CXCR4; tumor cells): strongly reduced
CCR5 expression (CCR5; CD45+ population): inverse effect
CCR5 expression (CCR5; tumor cells): radical effect
expression of PD-L1 (PD-L1; [13]): considerably reduced and less
expression of PD-L1 (PD-L1; immune CD45+ cell population): strongly reduced
expression of PD-L1 (PD-L1; separated CD45− cells): clear reduction
expression of PD-L1 (PD-L1; whole tumor cell populations): clear reduction
proportions of NK cells found in the tumor before and after ITPP treatments (R) (NK cells [6]; B16F10-Luc tumors in normal C57Bl6 mice): 2.25
number of NK cells in the tumor site (NK cells [6]; CD45+CD49+ NK cells, B16F10Luc tumors, C57BL6 mice): doubled
numbers of activated (CD45+CD49b+CD226+) NK cells (NK cells [6]; melanoma bearing mice, after ITPP treatment): increase
recruitment of activated NK cells (activated NK cells): higher recruitment
toxicity for cells treated separately (cells): not to be toxic
Treg cell numbers (Treg cells): reducing effect; also recorded: reduced
MDSCs proportion in the tumor (CD45+CD11b+Gr1+ MDSCs): reduced
proportions of NK cells found in the tumor before and after ITPP treatments (R) (NK cells [7]): 2.25
proportion of M2 (CD45+CD11c+CD206+) macrophages [8]: reduced; also recorded: decreased
cells expressing CCR10 (CCR10; B16F10 cells): reduced
increase of cells expressing CCR10 (R) (CCR10; endothelial cells enriched population): 2
increase of cells expressing CCR10 (R) (CCR10; immune cells (CD45+)): 10
CCR7 expression (CCR7): total reduction
CD45+PD-1+ cells among whole tumor populations (PD-1 [9]): increase; also recorded: enriched
tumor size (B16F10 melanoma cells [10]): reduction of the tumor size; also recorded: half size of the controls
mammary carcinoma reduction (4T1 mammary carcinoma; 4T1, day 31, after arrest of treatment on day 21): up to 50%
tumor size (4T1 mammary carcinoma; 4T1 mammary carcinoma in BALB/c-by mice, ITPP 1.5 g/kg intraperitoneally, day 31, versus controls): reduction of the tumor size; also recorded: half size of the controls
toxicity for the animals [11]: not to be toxic
numbers of macrophages expressing the M1 (CD45+CD11c+CD206−) phenotype [12]: tendency to increase; also recorded: tended to increase
